Here are results for 6 compounds from patent US20200230207A1, “TREATMENT OF BONE GROWTH DISORDERS” (FONDAZIONE TELETHON, priority 2015, published 2020).

Square brackets hold non-standard residues; d marks the D form. Ends that are not written are not given here. Peptide text beside a SMILES is read from it. * marks the point of attachment. Cbz = O=C(OCc1ccccc1)*

Series [1] has as its system growth plate chondrocytes. As to the kind of experiment: LC3II in femoral growth plates after leupeptin injection. Type of series: in vivo, mouse. On the procedure:
FIG. 9: a, Comparative TEM images of P0 and P6 wild type growth plate chondrocytes showing increased autophagosomes (AV) biogenesis at P6. Arrows indicate AVs. Bar graphs show number and size of AVs within 5.3 μm field of view (values represent mean±s.e.m. Student's t-test **p<0.005). b, Western blot analysis of LC3I/II of femoral growth plates from mice at indicated ages. Mice were injected with leupeptin (40 mg/kg i.p. 6h before sacrifice) where indicated. β-actin was used as loading control. Bar graphs show quantification of LC3II protein relative to β-actin (mean±s.e.m. *p<0.05 Student's t-test. n=3/group). c, Representative Western blot analysis of Atg7, LC3 and SQSTM1 (p62) proteins in Atg7 f/f, Col2a1-Cre; Atg7 f/f and Prx1-Cre; Atg7 f/f growth plate lysates. […]
FIG. 15: a, Representative images of high content imaging analysis of primary chondrocytes isolated from GFP-LC3 transgenic mice and treated with vehicle or FGF18 (25 ng /ml for 24 h). […] Scale bar 50 μm. b, Quantification of green vesicles (AVs) in cells treated with the indicated factors for 24h. Vesicles were counted in at least 1000 cells/treatment. […] Bar graphs show % of red vesicles (autolysosomes) and of total vesicles relative to vehicle (Values represent mean values±s.d. At least 10 cells/experiment were analyzed from 3 independent experiments. *p<0.05 ***p<0.0005. Student's t-test). […]

For series [2], the system named is FGFR3ach and FGFR3TD chondrocytes. As to the kind of experiment: LC3II in FGFR3 WT, FGFR3ach and FGFR3TD chondrocytes with lysosomal inhibitors. Type of series: cell-based, rat. The note with it: leupeptin 50 μM 2 h; bafilomycin 200 nM 4 h. As to the method:
Bars graphs represent LC3II quantification relative to β-actin. […] Graphs show representative histograms.
Leupeptin and bafilomycin treatments: Leupeptin (Sigma) was resuspended in water at 10 mM. FGFR3 wild type, FGFR3ach and FGFR3TD stable chondrocytes cell line were treated with 50 μM leupeptin for 2 h at 37° C. Bafilomycin (Millipore) was resuspended in DMSO at 200 μM. FGFR3 wild type, FGFR3 ach and FGFR3TD stable chondrocytes cell line were treated with 200 nM bafilomycin for 4 h at 37° C.

The subject of the next series is GusbKO chondrocytes. The series can be described thus: Protein degradation and mTORC1 signaling in GusbKO RCS chondrocytes with Mg132. Type of series: cell-based, rat. On the procedure: FIG. 23: G, WT and GusbKO RCS cells were pulse labelled for 18h with ^3H-Ser and chased for 48h in medium containing vehicle or 100 nM Mg-132. The rate of protein degradation is shown as the fraction of radiolabelled protein remaining over time. Values are expressed as mean (±s.e.m.) of n=3 independent experiments (Student's t-test, * p<0.05, ** p<0.005). H, Luminescent signal resulting from the cleavage of a luminescent Suc-LLVY peptide by the chymotrypsin-like activity of the proteasome was measured in WT and GusbKO RCS cells after 6h treatment with aminoacids. Data are representative of 3 independent experiments and are graphed as relative fluorescence units (RFU) (Student's t-test, * p<0.05). I, Western blot analysis of mTORC1 signaling in WT and GusbKO RCS cells treated with Mg-132 (10 μM) or DMSO (−) for 6h. Arrowheads indicate specific band. J, Bar graphs displaying quantification of relative phosphorylation. Values are expressed as mean (±s.e.m.) of n=3 independent experiments (Student's t-test, * p<0.05, ** p<0.005).

For series [3], the system named is Rx chondrocytes. The series can be described thus: Procollagen (PC2) secretion and trafficking in Rx chondrocytes. Type of series: cell-based, rat. As to the method:
FIG. 6: a, b, Quantification of secreted PC2 in control and Spautin-1-treated (24 h, 50 μM) (a) and Atg7-knockdown (KD; b) RCS chondrocytes after ER block release of PC2 (min). Ctrl, control. Mean values (±standard deviation (s.d.)) of 3 independent experiments. ANOVA, P=5.29×10^−5 (a), P=0.007 (b); Sidak post-hoc test, […], ***P<0.0005. c, PC2 localization in Golgi area and ER (HSP47) in vehicle and Spautin-1-treated (24 h, 50 μM) RCS chondrocytes 10 min after the ER block release of PC2. Bar graph represents the percentage (±s.d.) of cells containing PC2 in the indicated cellular compartment. N=60; n=3 independent experiments. Student's t-test, **P<0.005. Scale bar, 10 μm. d, Immunofluorescence of PC2, Sec31 and GFP-LC3 in RCS chondrocytes. The insets show higher magnification and single colour channels of the boxed area. N, nucleus. The data are representative of 5 independent experiments. Scale bar, 5 μm. e, Spinning-disk confocal image of RCS chondrocytes co-expressing GFP-LC3- and mCherry-PC2-tagged proteins. Arrows show PC2 molecules sequestered by GFP vesicles. The data are representative of 3 independent experiments. Scale bar, 10 μm. f, Time-lapse stills of PC2 and LC3 from the boxed region in e.
The insets show a high magnification of selected areas. […] The insets show a high magnification of selected areas. Red=collagen; Blue=DAPI. Scale bar 10 μm.
FIG. 14: a a, Immunofluorescence staining of HSP47 chaperone (red) in Atg7^fl/fl and Atg7^fl/fl; Prx1-Cre chondrocytes, showing altered HSP47 distribution in Prx1-Cre; Atg7^fl/fl chondrocytes. The data are representative of 3 independent experiments. Insets show a higher magnification of the boxed area. Scale bar, 10 μm. Blue, DAPI. b, Co-localization of PC2 with HSP47 in growth-plate chondrocytes of mice with indicated genotypes. The data are representative of 3 independent experiments. Scale bar, 20 μm. c, Altered HSP47 and PC2 trafficking in Spautin-1-treated chondrocytes. HSP47 and PC2 immunostaining in control (vehicle) or Spautin-1-treated RCS chondrocytes. Synchronized PC2 secretion was obtained after incubating chondrocytes for 3 h at 40° C. to block PC2 in the ER, and then shifting the temperature to 32° C. (ER block release) for 10 min. The data are representative of 2 independent experiments. Scale bar, 10 μm. d, Proposed model of autophagy function in chondrocytes. Autophagy in chondrocytes prevents PC2 aggregation and maintains ER homeostasis during the process of PC2 secretion. e, Confocal analysis of GFP-LAMP1 (green) and mCherry-PC2 (red) in vehicle- and Spautin-1-treated chondrocytes at the indicated time points (min) after the ER block release. The insets show a high magnification of the selected area. Scale bar, 5 μm. f, Quantification of GFP-LAMP1/mCherry-PC2 co-localization. Values represent mean±s.d. from three independent experiments. N=30. […] The data are representative of 2 independent experiments. Scale bar, 10 μm.
Live cell imaging: Rx chondrocytes were reverse transfected and plated in Mattek glass bottomed dishes. Collagen transport assays were performed by incubating cells at 40° C. on the heated stage for 2.5 h. Collagen release was initiated by lowering the temperature of the stage to 32° C. and medium being supplemented with 50 μg/ml ascorbate.
Procollagen secretion assay: To follow PC2 secretion in Rx chondrocytes, cells were pretreated ON with ascorbate (100 μg/ml) in DMEM without FCS. […]

Series [4] relates to primary chondrocytes isolated from GFP-LC3 mice. The series can be described thus: High content GFP-LC3 vesicle count in primary chondrocytes. Type of series: cell-based, mouse. The settings on record: in the presence of BafA1, 25 ng/ml for 24 h. As to the method: (§1) FIG. 15: a, Representative images of high content imaging analysis of primary chondrocytes isolated from GFP-LC3 transgenic mice and treated with vehicle or FGF18 (25 ng /ml for 24 h). BafA1 was used where indicated for 4 h (200 nM). Green spots represent GFP labeled AVs. Scale bar 50 μm. b, Quantification of green vesicles (AVs) in cells treated with the indicated factors for 24h. Vesicles were counted in at least 1000 cells/treatment. […] Bar graphs show % of red vesicles (autolysosomes) and of total vesicles relative to vehicle (Values represent mean values±s.d. At least 10 cells/experiment were analyzed from 3 independent experiments. *p<0.05 ***p<0.0005. Student's t-test). […] Quantification of data (mean±s.e.m of n=5 mice/group. *p<0.05, Student's t-test) f, Western blot analysis of Fgf18+/+ and Fgf18+/− growth plate lysates. […]
High content screening analysis in GFP-LC3 primary chondrocytes: Primary chondrocytes were plated in CellCarrier-96 Black plates (6005558, Perkin Elmer). […] To carry out the analysis the number of cytoplasmic GFP-LC3 spots in the cytoplasm of Col2 positive cells were counted, and expressed per cell. Levels of colocalization between GFP-LC3 and Col2a1 were assessed and expressed as %, using the parameters: area of colocalization of red spots with area of green spots normalized to total area of green spots. […]

The next series concerns VPS34-Beclin 1 complex. As to the kind of experiment: Bcl2 phosphorylation, Beclin 1 co-immunoprecipitation and PI3K assay in Rx chondrocytes. The note with it: 25 ng/ml. Type of series: cell-based, rat.
The test system of series [5] is Rx chondrocytes. As to the kind of experiment: Tandem mRFP-EGFP-LC3 autophagic flux in Rx chondrocytes. Type of series: cell-based, rat. The note with it: 25 ng/ml for 24 h. On the procedure: as §1, with “cells/treatment. Values represent mean values±s.d. of n=3 independent experiments; Statistical analysis was performed using repeated measure ANOVA with TUKEYs post-hoc test. **p<0.005. c, Western blot analysis of primary chondrocytes isolated from wild type mice treated as indicated (FGF18 25 ng/ml, 24 h). Where indicated BafA1 was added (200 nM, 4h).” for “cells/treatment.”

Series [6] has as its system rat model of osteoarthritis. The note with it: intra articular injection; cited from earlier work.
In series [7] the test system is MPSVII mice. The series can be described thus: Growth plate histology, BrDU index and collagen in MPSVII mice. Type of series: in vivo, mouse. The note with it: 2 mg/kg i.p. daily, P15.
A further series concerns MPSVI mice. The series can be described thus: Femur and tibia lengths in MPSVI mice. Type of series: in vivo, mouse. The settings on record: 2 mg/kg i.p. daily for 15 days, P15. On the procedure: (§2) Control mice were injected with vehicle only. Mice were sacrificed after 15 (P15) and 30 (P30) days.
(§3) Skeletal staining: Skeletons were fixed in 95% ethanol overnight (ON) and stained with alcian blue and alizarin red according to standardized protocols (http://empress.har.mrc.ac.uk/browser/). Three to five mice of each genotype were analyzed per stage. Measurement of bone length was performed using ImageJ software.

Series [8] has as its system MPSVII mice. As to the kind of experiment: Femur and tibia lengths in MPSVII mice. Type of series: in vivo, mouse. The settings on record: 2 mg/kg i.p. daily, P15 and P30. As to the method: as §2, §3
The mark [9] stands for this setting: synchronized PC2 secretion, 24 h, 50 μM.

In the case of `CC(=O)N[C@@H](CC(C)C)C(=O)N[C@@H](CC(C)C)C(=O)N[C@H](C=O)CCCNC(=N)N` [Leupeptin], the “LC3II levels in the growth plate of wild type mice” value in series [1] (40 mg/kg i.p. 6h before sacrifice, P2 and P6) is given as “further increased the levels of LC3II in the growth plate of P6 but not P2 mice”. For the same compound, the “LC3II levels in the growth plate of control and Fgf18+/- mice” value in series [1] (40 mg/kg i.p. 6 h before sacrifice, P6) was “significantly increased LC3II levels in the growth plate of P6 control but not in Fgfl 8 mice”. Moreover, the “level of LC3II protein compared to FGFR3 wild type stable cells” value in [2] is reported as “did not increase”.
In the case of `CC(C)C[C@@H](C=O)NC(=O)[C@H](CC(C)C)NC(=O)[C@H](CC(C)C)NC(=O)OCc1ccccc1` [Mg132] (Cbz-Leu-Leu-Leu-aldehyde), the “increased protein degradation rate of GusbKO chondrocytes” value in the series with GusbKO chondrocytes (100 nM, 48h chase) is “completely blunted”. In addition, the mTORC1 signaling entry in the series on GusbKO chondrocytes (10 μM, 6h) was “normalized”.
On to `Fc1ccc(CNc2ncnc3ccc(F)cc23)cc1` [Spautin-1], for which the “FGF18-induced increase of PC2 secretion” value in the series with Rx chondrocytes [3] (Spautin-1 24h added to FGF18-stimulated cells) was “hampered this increase”. For the same compound, the “ER to cis-Golgi trafficking of HSP47” value in the series on Rx chondrocytes [3] (cultured chondrocytes) was “inhibited”. Besides, in the series with Rx chondrocytes [3] (setting [9]), the “PC2 localization in the ER” value is “retention of PC2 in the ER” and the PC2 secretion result is on record as “defective PC2 secretion”.
“FGF18: fibroblast growth factor 18 (Peprotech)”: in the series on Rx chondrocytes [3] (FGF18 25 ng/ml), the “efficiency of PC2 secretion compared to non-stimulated cells” value is recorded as “higher efficiency”. Moreover, in series [4], the “AV number (autophagosome biogenesis)” value is listed as “increase significantly”. Moreover, in the series on VPS34-Beclin 1 complex (2h), the “interaction of Beclin 1-Bcl2” value is listed as “decreased”. Moreover, the “VPS34-Beclin 1 complex activity (PI3P levels produced)” value with VPS34-Beclin 1 complex (2 h, JNK dependent) is “increases”. The “phosphorylation of Bcl-2” value with VPS34-Beclin 1 complex (2h, JNK-dependent) is recorded as “increases”. In the series with Rx chondrocytes [5], the “autophagic flux (autolysosome number)” value was “enhanced”. The “repair of damaged cartilage” value in series [6] is “can stimulate the repair of damaged cartilage”.
Turning to “RRRQRRKKRGYGGTGFEGDHWIEFTANFVNT ([dR][dR][dR][dQ][dR][dR][dK][dK][dR]G[dY]GG[dT]G[dF][dE]G[dD][dH][dW][dI][dE][dF][dT][dA][dN][dF][dV][dN][dT]; also: retro-inverso)”, the “collagen levels in femoral and tibia cartilages” value in the series on MPSVII mice [7] is “normalizes”. The “growth plate differentiation and proliferation defects” value in the series on MPSVII mice [7] is “normalizes”. Besides, the “femoral and tibial growth retardation” value in the series on MPSVI mice and in the series on MPSVII mice [8] was “rescues” in each case.
For bafilomycin, the “level of LC3II protein compared to FGFR3 wild type stable cells” value in [2] is given as “did not increase”.
